Peptide text beside a SMILES is read from it.
target: T1, wild-type mouse C140 receptor (Mus musculus, UniProt P55086); experiment: 45Ca release by Xenopus oocytes expressing wild-type mouse C140 receptor; type: cell-based; details: Table 2; peptides at 100 μM; wild-type mouse C140 receptor in oocytes
T1 construct: Native receptors were produced by cloning the coding region of the receptor gene; expressed in transfected cells; host or cells: Xenopus laevis oocytes injected with capped cRNA from pSG-5 C140
T1 sequence (P55086 32-399 limits assumed): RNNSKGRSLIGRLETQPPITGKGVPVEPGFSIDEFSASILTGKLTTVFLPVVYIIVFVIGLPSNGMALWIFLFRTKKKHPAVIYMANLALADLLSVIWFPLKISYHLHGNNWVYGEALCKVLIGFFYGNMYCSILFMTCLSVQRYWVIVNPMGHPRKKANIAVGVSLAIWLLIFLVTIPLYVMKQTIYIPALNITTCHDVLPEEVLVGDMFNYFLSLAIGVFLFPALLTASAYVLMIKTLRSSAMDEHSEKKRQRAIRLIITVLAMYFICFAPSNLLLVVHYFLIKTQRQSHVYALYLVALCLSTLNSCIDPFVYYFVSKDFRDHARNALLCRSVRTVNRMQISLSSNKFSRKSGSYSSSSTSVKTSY
Description: Agonist-induced increases in ^45 Ca release by oocytes expressing cRNA encoding C140 receptor or other recombinant cells producing C140 receptor are assessed by published techniques (Williams, J. A., et al., Proc Natl Acad Sci USA (1988) 85:4939-4943). Briefly, intracellular calcium pools are labeled by incubating groups of 30 oocytes in 300 μl calcium-free modified Barth's solution (MBSH) containing 50 μCi ^45 CaCl2 (10-40 mCi/mg Ca; Amersham) for 4 hours at RT. The labeled oocytes or cells are washed, then incubated in MBSH II without antibiotics for 90 minutes. Groups of 5 oocytes are selected and placed in individual wells in a 24-well tissue culture plate (Falcon 3047) containing 0.5 ml/well MBSH II without antibiotics. This medium is removed and replaced with fresh medium every 10 minutes; the harvested medium is analyzed by scintillation counting to determine ^45 Ca released by the oocytes during each 10-minute incubation. The 10-minute incubations are continued until a stable baseline of ^45 Ca release per unit time is achieved. Two additional 10-minute collections are obtained, then test medium including agonist is added and agonist-induced ^45 Ca release determined.
Oocytes from Xenopus laevis were harvested and prepared using published techniques (Coleman, A., in Hames, B. D., and Higgins, S. J., eds, Transcription and Translation: A Practical Approach, IRL Press, pp. 271-302; Williams, J. A., et al. Proc Natl Acad Sci USA (1988) 85:4939-4943]. To remove follicular cells, oocytes were incubated for 1.5 h with shaking in calcium-free Barth's containing 2 mg/ml each of collagenase 1A and hyaluronidase 1S. The oocytes were then washed five times in regular Barth's and incubated at 18° C. in Barth's medium containing 100 U/ml penicillin, 100 μg/ml streptomycin, and 2.5 mM sodium pyruvate. Stage V oocytes were selected and injected with 30 nl of cRNA (0.33 μg/μl water) or water alone, and then incubated with 0.25 ml of medium in groups of four/well in a 96-well culture plate. After 36 hours the oocytes were incubated with ^45 Ca (250 μCi/ml). After 12 h incubation the oocytes were washed and 0.2 ml of medium added and replaced every five minutes. The harvested medium was analyzed by scintillation counting. After five replacements to determine the baseline release of ^45 Ca, test medium with the agonist, e.g. SLIGRL (SEQ ID NO: 23), was added and the evoked ^45 Ca-release determined.
Oocytes were injected with capped cRNA (ca 10 ng) encoding wild-type mouse C140 receptor (WT) or either of the three mutant receptors 35Pro, 35Arg and 35His. After 36 hours, cRNA-injected and control water-injected, oocytes were loaded with ^45 Ca, and 12 hours thereafter peptide or trypsin-induced ^45 Ca release were determined as described above. The peptide SLIGRL (SEQ ID NO: 23) was added at 100 μM, and trypsin at 300 pM. The stimulation with the peptide was done on the same group of oocytes after the stimulation with trypsin. The data shown in Table 1 represent the mean of three replicate determinations, and denotes the increase compared to oocytes injected with water.
Various peptides were tested at 100 μM in the assay above using wild-type mouse C140 receptor, expressed in oocytes.

Compound	Fold increase in 45Ca
CC[C@H](C)[C@H](NC(=O)[C@H](CC(C)C)NC(=O)[C@H](C)N)C(=O)NCC(=O)N[C@@H](CCCNC(=N)N)C(=O)N[C@@H](CC(C)C)C(=O)O [ALIGRL] (H-ALIGRL-OH)	1.3 fold
CC[C@H](C)[C@H](NC(=O)[C@H](C)NC(=O)[C@@H](N)CO)C(=O)NCC(=O)N[C@@H](CCCNC(=N)N)C(=O)N[C@@H](CC(C)C)C(=O)O [SAIGRL] (H-SAIGRL-OH)	0 fold
CC(C)C[C@H](NC(=O)[C@H](Cc1ccccc1)NC(=O)[C@H](Cc1ccccc1)NC(=O)[C@@H](N)CO)C(=O)N[C@@H](CCCNC(=N)N)C(=O)N[C@@H](Cc1c[nH]c2ccccc12)C(=O)O [SFFLRW, reference compound] (H-SFFLRW-OH)	1.7 fold
CC(C)C[C@H](NC(=O)[C@H](CCCNC(=N)N)NC(=O)CNC(=O)[C@H](C)NC(=O)[C@H](CC(C)C)NC(=O)[C@@H](N)CO)C(=O)O [SLAGRL] (H-SLAGRL-OH)	0 fold
CC[C@H](C)[C@H](NC(=O)[C@H](CC(C)C)NC(=O)[C@@H](N)CO)C(=O)N[C@@H](C)C(=O)N[C@@H](CCCNC(=N)N)C(=O)N[C@@H](CC(C)C)C(=O)O [SLIARL] (H-SLIARL-OH)	4.3 fold
CC[C@H](C)[C@H](NC(=O)[C@H](CC(C)C)NC(=O)[C@@H](N)CO)C(=O)NCC(=O)N[C@@H](C)C(=O)N[C@@H](CC(C)C)C(=O)O [SLIGAL] (H-SLIGAL-OH)	0 fold
CC[C@H](C)[C@H](NC(=O)[C@H](CC(C)C)NC(=O)[C@@H](N)CO)C(=O)NCC(=O)N[C@@H](CCCNC(=N)N)C(=O)N[C@@H](C)C(=O)O [SLIGRA] (H-SLIGRA-OH)	8.5 fold
